{"source": "patent US20230391868A1", "about": "“COMPOSITIONS FOR AND METHODS OF TREATING CANCER” (The George Washington University, priority 2022, published 2023)", "key": {"[1]": {"system": "WM793 human melanoma cells", "experiment": "CD47 gene expression upon IFNγ in WM793 cells", "format": "cell-based", "settings": "5 μM NextA (FIG. 3L)", "experimental": "qRT-PCR: Total RNA was extracted from cells using the Trizol reagent according to manufacturer's instructions (ThermoFisher Scientific, 15596018). Samples were then processed immediately or stored at −80° C. RNA was quantified using a NanoDrop One Spectrophotometer (ThermoFisher Scientific). The 260/280 ratios were routinely over 1.8. Sample cDNA was produced using the iScript cDNA synthesis kit (Bio-Rad, 1708891). Target mRNA was quantified using MyIQ single-color real-time PCR detection system from Bio-Rad (Bio-Rad, Hercules, CA) and iQ SYBR green Supermix (Bio-Rad, 1708882). […] Quantification is expressed in arbitrary units and target mRNA levels were normalized to R-actin expression.\nThis phenomenon was further examined in human melanoma cell lines to test the translational application of the results obtained using mouse models. […] Furthermore, the effects of HDAC6 KD on IFNγ-driven CD47 upregulation was analyzed. […] The effects of pharmacological inhibition of HDAC6 in other human melanoma cell lines (WM1361A and WM793) were also assessed. […]"}, "[2]": {"system": "SM1 melanoma tumors", "experiment": "Immunophenotyping of SM1 tumors by flow cytometry", "format": "in vivo, mouse", "experimental": "Flow Cytometry: Immunophenotyping of tumors by flow cytometry was performed following the protocol previously described (Knox T, et al. (2019) Sci. Rep. 9:6136; Banik D, et al. (2020) Cancer Res. 80:3649-3662). When control tumors reached the endpoint (2000 mm^3), mice were euthanized following the IACUC protocol at The George Washington University, and tumors were processed into a single-cell suspension for analysis by flow cytometry with tumor digestion buffer containing collagenases I and IV, hyaluronidase V, and DNAse I. Dead cells were discriminated using LIVE/DEAD™ Fixable Aqua Dead Cell Stain Kit (ThermoFisher Scientific, L34965). The antibodies used to stain cell surface markers were all purchased from BioLegend (San Diego, CA) unless otherwise mentioned. Myeloid cell surface markers include: APC/Fire 750 anti-mouse CD45.2 (clone 104), Brilliant Violet 421 anti-mouse/human CD11b (clone M1/70), Brilliant Violet 605 anti-mouse Ly-6G/Ly-6C (Gr-1) (clone RB6-8C5), Brilliant Violet 785 anti-mouse F4/80 (clone BM8), APC anti-mouse CD80 (clone 16-10A1), PerCP/Cyanine5.5 anti-mouse H-2Kd (clone SF1-1.1), PE/Cy7 anti-mouse CD206 (MMR) (clone C068C2), PE anti-mouse CD163 (clone 5B11), and Alexa Fluor 700 anti-mouse CD3 (clone 17A2). T cell surface markers are as follows: Brilliant Violet 785 anti-mouse CD45.2 (clone 104), PerCP/Cy5.5 anti-mouse CD3 (clone 17A2), APC/Fire 750 anti-mouse CD8a (clone 53-6.7), Brilliant Violet 650 anti-mouse CD4 (clone GK1.5), Brilliant Violet 605 anti-mouse CD44 (clone IM7), PE anti-mouse CD62L (clone MEL-14), and Pacific Blue anti-mouse CD25 (clone PC61). NK cell surface markers are as follows: Brilliant Violet 785 anti-mouse CD45.2 (clone 104), PerCP/Cy5.5 anti-mouse CD3 (clone 17A2), PE/Cy7 anti-mouse CD49b (pan-NK cells) (clone DX5), Brilliant Violet 421 anti-mouse CD16/32 (clone 93), Alexa Fluor 700 anti-mouse CD8a (clone 53-6.7), and PE anti-mouse 4-1BB (clone 17B5). Multicolor flow data was acquired using a BD FACS Celesta Cell Analyzer, and data analysis was performed with FlowJo software version 10.3. The gating strategies for each immune cell panel can be found in FIG. 11A-FIG. 11C.\nTo evaluate the effects of the single arms and combination therapy, the tumors were harvested at the experimental endpoint and immunophenotyping was performed by flow cytometry. Overall, the combination of NextA and anti-CD47 had immunomodulatory effects and enhanced immune cell infiltration in the TME. […] The different macrophage populations in the tumors were evaluated (FIG. 6B)."}}}
{"smiles": "CCCCN(Cc1ccc(C(=O)NO)cc1)C(=O)Nc1ccccc1", "note": "[NextA, Nexturastat A]", "values": [{"measurement": "IFNγ-driven CD47 upregulation", "setting": "[1]", "result": "corroborated"}, {"measurement": "M1/M2 ratio", "setting": "[2]; SM1 tumors", "result": "increased"}, {"measurement": "M1-like macrophages (CD80+, H2Kd+, F4/80+)", "setting": "[2]; SM1 tumors (FIG. 6B)", "result": "significantly increased"}, {"measurement": "M2-like macrophages (CD206+, CD163+, F4/80+)", "setting": "[2]; SM1 tumors (FIG. 6B)", "result": "significantly decreased"}, {"measurement": "CD3 T cell infiltration", "setting": "[2]; SM1 tumors (FIG. 6C)", "result": "increased"}, {"measurement": "total NKT, CD8+ NKT, and CD137+ CD8+ NKT cells in the TME", "setting": "[2]; SM1 tumors (FIG. 6J)", "result": "significantly increased"}]}
